Measured values as given in ChEMBL document CHEMBL1135303, “Design and synthesis of aminophenol-based factor Xa inhibitors” (Bioorg Med Chem Lett, 2002).

Legend:
Coagulation factor X = Coagulation factor X (Homo sapiens, UniProt P00742); experiment: Competitive inhibition of coagulation factor Xa
Prothrombin [1] = biological target: T1, Prothrombin (Homo sapiens, UniProt P00734); experiment: Competitive inhibition of coagulation factor IIa
Serine protease 1 = biological target: T2, Serine protease 1 (Bos taurus, UniProt P00760); experiment: Competitive inhibition of trypsin
T2 sequence (P00760 whole entry): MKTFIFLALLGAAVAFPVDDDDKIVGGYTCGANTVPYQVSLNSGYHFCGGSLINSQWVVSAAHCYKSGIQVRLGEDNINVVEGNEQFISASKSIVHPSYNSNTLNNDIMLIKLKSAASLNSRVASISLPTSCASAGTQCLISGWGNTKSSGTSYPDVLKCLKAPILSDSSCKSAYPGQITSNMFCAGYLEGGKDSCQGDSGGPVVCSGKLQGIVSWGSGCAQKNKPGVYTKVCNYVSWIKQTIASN

Prothrombin [2] = biological target: T1, Prothrombin; experiment: Concentration required to double the prothrombin based clotting time in human plasma; assay type: functional, cell-free
Prothrombin [3] = biological target: T1, Prothrombin; experiment: Concentration required for twofold increase in thrombin clotting time in human plasma; assay type: functional, cell-free
[4] = biological target: Serine protease 1 (Homo sapiens) (UniProt P07477); experiment: The selectivity ratio for Trypsin and Coagulation factor Xa was determined

Ki (Coagulation factor X) | Ki (Prothrombin [1]) | Ki (Serine protease 1) | Concentration (Prothrombin [2]) | Concentration (Prothrombin [3]) | Ratio [4] | SMILES
0.17 nM | 400 nM | 42 nM |  |  |  | CC(=N)N1CCC(Oc2ccc(NCc3cccc(-c4cccc(C(=N)N)c4)c3)cc2[N+](=O)[O-])CC1
0.07 nM | 1550 nM | 5 nM |  |  |  | CC(=N)N1CCC(Oc2ccc(NC/C(C)=C/c3cccc(C(=N)N)c3)cc2[N+](=O)[O-])CC1
7.5 nM | 5000 nM | 80 nM |  |  |  | CC(=N)N1CCC(Oc2ccc(NC/C=C/c3cccc(C(=N)N)c3)cc2)CC1
4.1 nM | 4700 nM | 70 nM | 0.73 µM | 240 µM |  | CC(=N)N1CCC(Oc2ccc(NC/C=C/c3cccc(C(=N)N)c3)cc2F)CC1
0.1 nM | 1100 nM | 200 nM | 1.05 µM | 210 µM | 2000 | CC(=N)N1CCC(Oc2ccc(NC/C=C/c3cc(C(=N)N)ccc3O)cc2C(F)(F)F)CC1
0.56 nM | 3260 nM | 10 nM | 0.52 µM | 200 µM |  | CC(=N)N1CCC(Oc2ccc(N(C/C=C/c3cccc(C(=N)N)c3)C(=O)c3ccc(C(=O)O)c(C(=O)O)c3)cc2C(F)(F)F)CC1
0.3 nM | 5000 nM | 3 nM |  |  |  | CC(=N)N1CCC(Oc2ccc3c(nc(C)n3Cc3ccc4ccc(C(=N)N)cc4c3)c2[N+](=O)[O-])CC1
0.27 nM | 2900 nM | 27 nM |  |  |  | CC(=N)N1CCC(Oc2ccc(NC/C=C/c3cccc(C(=N)N)c3)cc2[N+](=O)[O-])CC1
0.08 nM | 1960 nM | 7 nM |  |  |  | CC(=N)N1CCC(Oc2ccc(NCc3ccc4ccc(C(=N)N)cc4c3)cc2[N+](=O)[O-])CC1
6.8 nM | 480 nM | 40 nM | 2.6 µM | 15 µM |  | CCOC(=O)c1cc(NC/C=C/c2cccc(C(=N)N)c2)ccc1OC1CCN(C(C)=N)CC1
0.88 nM | 2140 nM | 50 nM | 0.8 µM | 220 µM |  | CC(=N)N1CCC(Oc2ccc(NC/C=C/c3cccc(C(=N)N)c3)cc2C(F)(F)F)CC1

The next lines start with the compound.

SMILES | Ki (Coagulation factor X) | Ki (Prothrombin [1]) | Ki (Serine protease 1) | Concentration (Prothrombin [2]) | Concentration (Prothrombin [3]) | Ratio [4]
CC(=N)N1CCC(Oc2ccc(N(C/C=C/c3cccc(C(=N)N)c3)C(=O)CCC(=O)O)cc2C(F)(F)F)CC1 | 0.28 nM | 5000 nM | 110 nM | 0.75 µM | 540 µM | 
CC(=O)N1CCC(Oc2ccc(NC/C=C/c3cc(C(=N)N)ccc3O)cc2C(F)(F)F)CC1 | 18.5 nM | 480 nM | 830 nM | 21 µM | 151 µM | 
CCOC(=O)CCC(=O)N(C/C=C/c1cccc(C(=N)N)c1)c1ccc(OC2CCN(C(C)=N)CC2)c(C(F)(F)F)c1 | 0.55 nM | 1000 nM | 76 nM | 0.87 µM | 32 µM | 140
CS(=O)(=O)N1CCC(Oc2ccc(NC/C=C/c3cc(C(=N)N)ccc3O)cc2C(F)(F)F)CC1 | 44 nM |  | 1250 nM |  |  | 
CC(=N)N1CCC(Oc2ccc(N(C/C=C/c3cc(C(=N)N)ccc3O)C(=O)CCC(=O)O)cc2C(F)(F)F)CC1 | 0.1 nM | 5140 nM | 280 nM | 0.54 µM | 174 µM | 2800
N=C(N)c1ccc(O)c(/C=C/CNc2ccc(OC3CCN(C(N)=O)CC3)c(C(F)(F)F)c2)c1 | 7.3 nM | 250 nM | 520 nM |  |  | 
CN1CCC(Oc2ccc(N(C/C=C/c3cc(C(=N)N)ccc3O)C(=O)CCC(=O)O)cc2C(F)(F)F)CC1 | 0.28 nM | > 5000 nM | 765 nM |  |  | 
CN1CCC(Oc2ccc(NC/C=C/c3cc(C(=N)N)ccc3O)cc2C(F)(F)F)CC1 | 0.58 nM | 1820 nM | 630 nM | 0.98 µM | 156 µM | 
CC(=O)N1CCC(Oc2ccc(N(C/C=C/c3cc(C(=N)N)ccc3O)C(=O)CCC(=O)O)cc2C(F)(F)F)CC1 | 3 nM | > 5500 nM | 891 nM | 3 µM | 173 µM | 
N=C(N)c1ccc(O)c(/C=C/CN(C(=O)CCC(=O)O)c2ccc(OC3CCN(CC(=O)O)CC3)c(C(F)(F)F)c2)c1 | 0.34 nM | > 5000 nM | 870 nM |  |  | 
CCOC(=O)CCC(=O)N(C/C=C/c1cc(C(=N)N)ccc1O)c1ccc(OC2CCN(C(C)=N)CC2)c(C(F)(F)F)c1 | 0.07 nM | 2280 nM | 230 nM | 0.8 µM | 265 µM | 3300
